Laboratory results reported in patent US9895329B1, “Formyl peptide receptor 1 antagonists and uses thereof” (Chang Gung University, priority 2016, dated 2018).

Tests used:
human neutrophils [1] = experiment: O2•− (superoxide) production in fMLF-activated human neutrophils; assay type: cell-based; conditions: Neutrophil; fMLF (0.1 μM)/CB-activated human neutrophils; read-out: IC50, suppression of superoxide production
Description: (§1) Human neutrophils were obtained in lipopolysaccharide-free conditions by means of dextran sedimentation and Ficoll centrifugation.
O2^•− production was determined based on the SOD-inhibitable reduction of ferricytochrome c. Briefly, neutrophils (6×10^5/mL) were treated with LS-PH at 37° C. at various concentrations (0.03 to 3 μM) for 5 min after being supplementing with 0.5 mg/mL ferricytochrome c and 1 mM Ca^2+. Cells were activated with formyl-L-methionyl-L-leucyl-L-phenylalanine (fMLF, 0.1 μM) for 10 min in the pre-process of cytochalasin B (CB, 1 μg/mL) for 3 min. Changes in absorbance with the reduction of ferricytochrome c at 550 nm were continuously monitored in a double-beam, six-cell positioner spectrophotometer with constant stirring (Hitachi U-3010, Tokyo, Japan). Calculations were based on the differences in the reactions with and without SOD (100 U ml^−1) divided by the extinction coefficient for the reduction of ferricytochrome c (ε=21.1 mM^−1/10 mm).

human neutrophils [2] = experiment: Elastase release from fMLF-activated human neutrophils; assay type: cell-based; conditions: Neutrophil; fMLF (0.1 μM)/CB-activated human neutrophils; read-out: IC50, suppression of elastase release
Description: as §1
MeO-Suc-Ala-Ala-Pro-Val-p-nitroanilide was employed as the elastase substrate for the determination of elastase release. Briefly, after supplementation with Methoxysuccinyl-Ala-Ala-Pro-Val-p-nitroanilide (Ms-Ala-Ala-Pro-Val-pNA) (100 μM), neutrophils (6×10^5/mL) were equilibrated at 37° C. for 2 min and incubated with LS-PH at various concentrations for 5 min. Cells were activated with fMLF (0.1 μM) for 10 min in the pre-process of cytochalasin B (CB, 0.5 μg/mL) for 3 min, and changes in absorbance at 405 nm were continuously monitored to evaluate elastase release. Results are expressed as the percentage of elastase release in the drug-free control group, DMSO.

human neutrophils [3] = experiment: Intracellular ROS formation in fMLF-activated human neutrophils; assay type: cell-based
Description: as §1
After supplementation with dihydrorhodamine 123 (2 μM), neutrophils (1×10^6/mL) were equilibrated at 37° C. for 12 min and incubated with LS-PH at various concentrations for 5 min. Cells were activated with fMLF (0.1 μM) for 5 min in the pre-process of cytochalasin B (CB, 0.5 μg/mL) for 3 min. Intracellular ROS was determined by use of flow cytometer.

human neutrophils [4] = assay type: cell-based; conditions: 0.03 to 3 μM
Description: Cytotoxicity of LS-PH towards neutrophils was evaluated by measuring the level of lactate dehydrogenase (LDH) using a commercial kit (Promega). LDH is a cytosolic enzyme that is released only when cell membrane is disrupted (i.e., cell death), thus may be used as an indicator of cell viability. The kit measures a color change at (λmax=450 nm) when LDH reduces NAD to NADH. Cytotoxicity was expressed as the percent LDH activity obtained in cell-free medium compared to the total LDH activity. Total LDH activity was determined by lysing cells with 0.1% Triton X-100 for 30 min at 37° C.

FPR1 = biological target: T1, FPR1 (Homo sapiens, UniProt P21462); experiment: FPR1 binding assay (FNLFNYK, flow cytometry); conditions: neutrophils, FNLFNYK 4 nM, 4° C.; read-out: IC50, suppression of binding of FPR1-specific ligand FNLFNYK
T1 construct: endogenous in cells; host or cells: neutrophils
T1 sequence (P21462 1-350): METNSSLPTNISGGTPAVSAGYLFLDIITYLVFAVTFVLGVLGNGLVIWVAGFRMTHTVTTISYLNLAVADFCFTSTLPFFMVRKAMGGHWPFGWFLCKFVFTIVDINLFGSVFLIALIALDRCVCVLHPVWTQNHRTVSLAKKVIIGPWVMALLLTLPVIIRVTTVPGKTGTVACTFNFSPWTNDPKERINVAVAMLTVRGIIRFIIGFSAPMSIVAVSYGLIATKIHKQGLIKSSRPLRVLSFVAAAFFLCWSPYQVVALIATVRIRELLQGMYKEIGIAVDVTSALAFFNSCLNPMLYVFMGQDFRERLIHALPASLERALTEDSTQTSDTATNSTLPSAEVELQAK
Description: Neutrophils (2×10^6 cells/ml) were incubated with various concentrations of compound LS-PH (0.03 to 3 μM) or fMLF (10 μM) at 4° C. for 5 min, and labeled with FPR1-specific ligand […] (4 nM) for 30 min. Then, the binding was determined by use of flow cytometry.

## C=C(C)C1CCC2(C(=O)O)CC[C@]3(C)[C@H](CC[C@@H]4[C@@](C)(CCC(=O)O)[C@H](C(=C)C)CC[C@]43C)C12 (some centres unmarked) [LS-PH, (E) 3,4-Seco-4(23), 20(29)-lupadiene-3,28-dioic acid]
Human neutrophils [1]
  IC50: ~260 nM
Human neutrophils [2]
  IC50: ~710 nM
Human neutrophils [3]
  suppression of fMLF-induced intracellular ROS formation: suppress fMLF-induced intracellular ROS formation
Human neutrophils [4]
  cytotoxicity (LDH release): did not exhibit detectable cytotoxicity
FPR1
  IC50: ~1720 nM
